Values quoted from earlier work, collected in patent publication US8030335B2, “Use of liver X receptor agonists” (Laboratoires Fournier S.A., priority 2005, dated 2011).

Assays:
db/db mice = details: cited from earlier work
[1] = tested on: pancreatic islets or insulin-secreting MIN6 cells; details: culture with compound, cited from earlier work

## O=S(=O)(c1ccccc1)N(CC(F)(F)F)c1ccc(C(O)(C(F)(F)F)C(F)(F)F)cc1 [T0901317]
db/db mice; db/db mice (not in normal mice)
  plasma glucose level: lower plasma glucose level
db/db mice; limits hepatic glucose output
  expression of PEPCK: inhibits
[1]
  islet insulin content: increase
[1]; effect only after >72 h of islet culture
  glucose-dependent insulin secretion: increase
